Experimental data taken from patent US20240279207A1, “SUBSTITUTED ACYL SULFONAMIDES FOR TREATING CANCER” (The Broad Institute, Inc., priority 2020, published 2024).

Key:
[1] = target: T1, Recombinant human His-tagged Kat6a protein (amino acids 194-810) (Homo sapiens, UniProt Q92794); test: Kat6a activity assay (TR-FRET, acetylation of Histone-H4-derived peptide); format: biochemical; details: 60 mins at 22° C., 220 nM H4 peptide, 600 nM Acetyl Coenzyme A, read-out: KAT6A - DPF/HAT domain IC50 [mol/l] (arithmetic mean)
T1 construct: Kat6a protein (amino acids 194-810); His

[2] = test system: ESR1 transcription in MVLN cells; test: MVLN reporter assay: repression of ESR1 transcription (luciferase signal); format: cell-based; details: Homo sapiens, MVLN, 24 h, luciferase signal after 24 h, read-out: MVLN reporter assay, IC50 [M] (arithmetic mean)
Summary of the method: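 To control for cell loss, Alamar Blue (2 h, 530/590 nm) precedes the 24 h luciferase measurement. The reporter is an ERE from the Xenopus vitellogenin A2 gene driving luciferase, stably transfected into ER-expressing MVLN cells; duplicate samples.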

T1 sequence (Q92794 194-810): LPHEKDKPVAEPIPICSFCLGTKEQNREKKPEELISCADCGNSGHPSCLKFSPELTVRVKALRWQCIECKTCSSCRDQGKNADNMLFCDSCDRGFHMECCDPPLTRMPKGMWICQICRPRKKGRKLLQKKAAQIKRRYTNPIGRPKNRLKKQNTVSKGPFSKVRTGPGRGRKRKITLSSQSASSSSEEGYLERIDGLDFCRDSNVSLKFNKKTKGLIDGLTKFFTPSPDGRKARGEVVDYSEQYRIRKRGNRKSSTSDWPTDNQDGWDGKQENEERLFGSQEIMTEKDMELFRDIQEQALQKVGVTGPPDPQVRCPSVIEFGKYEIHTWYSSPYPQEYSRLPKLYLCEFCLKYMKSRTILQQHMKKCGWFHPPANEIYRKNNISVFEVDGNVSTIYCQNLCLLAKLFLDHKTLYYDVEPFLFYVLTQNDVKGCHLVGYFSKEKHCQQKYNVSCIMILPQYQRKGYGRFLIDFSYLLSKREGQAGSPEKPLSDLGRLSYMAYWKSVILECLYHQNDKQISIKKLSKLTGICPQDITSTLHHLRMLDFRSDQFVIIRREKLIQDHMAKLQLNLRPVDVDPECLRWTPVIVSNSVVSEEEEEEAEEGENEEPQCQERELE

IC50 [1]	IC50 [2]	Structure (SMILES)
42.7 nM	5.73e-07 M	CCc1cccc(OC(C)C)c1S(=O)(=O)NC(=O)c1cc2c(F)cc(N3CCC3)cc2o1 [Example 84, 6-(Azetidin-1-yl)-N-{2-ethyl-6-[(propan-2-yl)oxy]benzene-1-sulfonyl}-4-fluoro-1-benzofuran-2-carboxamide]
45.7 nM	3.1e-07 M	CCc1cccc(OCc2ccccc2)c1S(=O)(=O)NC(=O)c1cc2c(F)cc(N3CCC3)cc2o1 [Example 85, 6-(Azetidin-1-yl)-N-[2-(benzyloxy)-6-ethylbenzene-1-sulfonyl]-4-fluoro-1-benzofuran-2-carboxamide]
54.8 nM	3.33e-07 M	Cc1cccc(OC(C)C)c1S(=O)(=O)NC(=O)c1cc2c(F)cc(N3CCC3)cc2o1 [Example 86, 6-(Azetidin-1-yl)-4-fluoro-N-{2-methyl-6-[(propan-2-yl)oxy]benzene-1-sulfonyl}-1-benzofuran-2-carboxamide]
64.5 nM	1.2e-06 M	Cc1ccc(S(=O)(=O)NC(=O)c2cc3c(F)cc(N4CCC4)cc3o2)c2ccccc12 [Example 87, 6-(azetidin-1-yl)-4-fluoro-N-(4-methylnaphthalene-1-sulfonyl)-1-benzofuran-2-carboxamide]
127 nM	4.45e-07 M	Cc1ccc(F)c(S(=O)(=O)NC(=O)c2cc3c(F)cc(N4CCC4)cc3o2)c1F [Example 88, 6-(Azetidin-1-yl)-N-(2,6-difluoro-3-methylbenzene-1-sulfonyl)-4-fluoro-1-benzofuran-2-carboxamide]
269 nM	> 2e-05 M	CCC(=O)Nc1cccc2c(S(=O)(=O)NC(=O)c3cc4c(F)cc(N5CCC5)cc4o3)cccc12 [Example 89, 6-(Azetidin-1-yl)-4-fluoro-N-(5-propanamidonaphthalene-1-sulfonyl)-1-benzofuran-2-carboxamide]
300 nM	> 2e-05 M	CCOC(=O)c1cn2cccc(S(=O)(=O)NC(=O)c3cc4c(F)cc(N5CCC5)cc4o3)c2n1 [Example 90, Ethyl 8-{[6-(azetidin-1-yl)-4-fluoro-1-benzofuran-2-carbonyl]sulfamoyl}imidazo[1,2-a]pyridine-2-carboxylate]
379 nM	3.08e-07 M	Cc1nn(C(C)C)cc1S(=O)(=O)NC(=O)c1cc2c(F)cc(N3CCC3)cc2o1 [Example 91, 6-(Azetidin-1-yl)-4-fluoro-N-[3-methyl-1-(propan-2-yl)-1H-pyrazole-4-sulfonyl]-1-benzofuran-2-carboxamide]
464 nM	> 2e-05 M	O=C(NS(=O)(=O)c1cc(C(F)(F)F)ccc1NCC(F)F)c1cc2c(F)cc(N3CCC3)cc2o1 [Example 92, 6-(Azetidin-1-yl)-N-{2-[(2,2-difluoroethyl)amino]-5-(trifluoromethyl)benzene-1-sulfonyl}-4-fluoro-1-benzofuran-2-carboxamide]
1160 nM	> 2e-05 M	NS(=O)(=O)c1cc(COC(=O)c2cc3c(F)cc(N4CCC4)cc3o2)ccc1OC(F)(F)F [Example 93, [3-sulfamoyl-4-(trifluoromethoxy)phenyl]methyl 6-(azetidin-1-yl)-4-fluoro-1-benzofuran-2-carboxylate]
1510 nM	> 2e-05 M	Cc1ncccc1S(=O)(=O)NC(=O)c1cc2c(F)cc(N3CCC3)cc2o1 [Example 94, 6-(Azetidin-1-yl)-4-fluoro-N-(2-methylpyridine-3-sulfonyl)-1-benzofuran-2-carboxamide]
1520 nM	> 2e-05 M	CN(C)C(=O)c1cccnc1S(=O)(=O)NC(=O)c1cc2c(F)cc(N3CCC3)cc2o1 [Example 95, 2-{[6-(Azetidin-1-yl)-4-fluoro-1-benzofuran-2-carbonyl]sulfamoyl}-N,N-dimethylpyridine-3-carboxamide]
6250 nM	> 2e-05 M	O=C(NS(=O)(=O)c1ccccc1C1=NOCCO1)c1cc2c(F)cc(N3CCC3)cc2o1 [Example 96, 6-(Azetidin-1-yl)-N-[2-(5,6-dihydro-1,4,2-dioxazin-3-yl)benzene-1-sulfonyl]-4-fluoro-1-benzofuran-2-carboxamide]
14000 nM	> 2e-05 M	CN(C)c1ccc(Cl)c(S(=O)(=O)NC(=O)c2cc3c(F)cc(N4CCC4)cc3o2)c1 [Example 97, 6-(Azetidin-1-yl)-N-[2-chloro-5-(dimethylamino)benzene-1-sulfonyl]-4-fluoro-1-benzofuran-2-carboxamide]
> 20000 nM	> 2e-05 M	NS(=O)(=O)c1cc(OC(=O)c2cc3c(F)cc(N4CCC4)cc3o2)cc2ccccc12 [Example 98, 4-Sulfamoylnaphthalen-2-yl 6-(azetidin-1-yl)-4-fluoro-1-benzofuran-2-carboxylate]
272 nM	8.1e-07 M	CC(=O)c1ccc(Cl)c(S(=O)(=O)NC(=O)c2cc3c(F)cc(N4CCC4)cc3o2)c1 [Example 99, N-(5-Acetyl-2-chlorobenzene-1-sulfonyl)-6-(azetidin-1-yl)-4-fluoro-1-benzofuran-2-carboxamide]

IC50 [1]	IC50 [2]	Structure (SMILES)
121 nM	1.94e-06 M	CC(C)OC(=O)c1ccccc1S(=O)(=O)NC(=O)c1cc2c(F)cc(N3CCC3)cc2o1 [Example 101, Propan-2-yl 2-{[6-(azetidin-1-yl)-4-fluoro-1-benzofuran-2-carbonyl]sulfamoyl}benzoate]
116 nM	4.07e-06 M	COC(=O)CCc1ccccc1S(=O)(=O)NC(=O)c1cc2c(F)cc(N3CCC3)cc2o1 [Example 102, Methyl 3-(2-{[6-(azetidin-1-yl)-4-fluoro-1-benzofuran-2-carbonyl]sulfamoyl}phenyl)propanoate]
613 nM	1.02e-05 M	O=C(NS(=O)(=O)c1cc(C(F)(F)F)cnc1Cl)c1cc2c(F)cc(N3CCC3)cc2o1 [Example 103, 6-(Azetidin-1-yl)-N-[2-chloro-5-(trifluoromethyl)pyridine-3-sulfonyl]-4-fluoro-1-benzofuran-2-carboxamide]
793 nM	1.05e-05 M	Cc1nc(N)c(S(=O)(=O)NC(=O)c2cc3c(F)cc(N4CCC4)cc3o2)c(C)c1Cl [Example 104, N-(2-amino-5-chloro-4,6-dimethylpyridine-3-sulfonyl)-6-(azetidin-1-yl)-4-fluoro-1-benzofuran-2-carboxamide]
> 20000 nM	> 2e-05 M	O=C(NS(=O)(=O)c1ccc(O)c2ccccc12)c1cc2c(F)cc(N3CCC3)cc2o1 [Example 106, 6-(Azetidin-1-yl)-4-fluoro-N-(4-hydroxynaphthalene-1-sulfonyl)-1-benzofuran-2-carboxamide]
68.6 nM	1.29e-07 M	O=C(NS(=O)(=O)c1cccc2c1CCCC2)c1cc2c(F)cc(N3CC(F)C3)cc2o1 [Example 108, 4-Fluoro-6-(3-fluoroazetidin-1-yl)-N-(5,6,7,8-tetrahydronaphthalene-1-sulfonyl)-1-benzofuran-2-carboxamide]
172 nM	5.92e-07 M	O=C(NS(=O)(=O)c1cccc2c1OCCO2)c1cc2c(F)cc(N3CC(F)C3)cc2o1 [Example 109, N-(2,3-dihydro-1,4-benzodioxine-5-sulfonyl)-4-fluoro-6-(3-fluoroazetidin-1-yl)-1-benzofuran-2-carboxamide]
208 nM	5.47e-07 M	O=C(NS(=O)(=O)c1cccc2c1NCCC2)c1cc2c(F)cc(N3CC(F)C3)cc2o1 [Example 110, 4-Fluoro-6-(3-fluoroazetidin-1-yl)-N-(1,2,3,4-tetrahydroquinoline-8-sulfonyl)-1-benzofuran-2-carboxamide]
3080 nM	> 2e-05 M	O=C(NS(=O)(=O)c1ccnc2ccccc12)c1cc2c(F)cc(N3CC(F)C3)cc2o1 [Example 111, 4-Fluoro-6-(3-fluoroazetidin-1-yl)-N-(quinoline-4-sulfonyl)-1-benzofuran-2-carboxamide]
5210 nM	> 2e-05 M	CN1CCc2c(cccc2S(=O)(=O)NC(=O)c2cc3c(F)cc(N4CC(F)C4)cc3o2)C1 [Example 112, 4-Fluoro-6-(3-fluoroazetidin-1-yl)-N-(2-methyl-1,2,3,4-tetrahydroisoquinoline-5-sulfonyl)-1-benzofuran-2-carboxamide]
406 nM	> 2e-05 M	O=C(NS(=O)(=O)c1ccccc1C(Cl)Cl)c1cc2c(F)cc(N3CC(F)C3)cc2o1 [Example 114, N-[2-(dichloromethyl)benzene-1-sulfonyl]-4-fluoro-6-(3-fluoroazetidin-1-yl)-1-benzofuran-2-carboxamide]
563 nM	3.81e-06 M	Cc1nc(-c2ccc(S(=O)(=O)NC(=O)c3cc4c(F)cc(N5CC(F)C5)cc4o3)cc2)cs1 [Example 115, 4-Fluoro-6-(3-fluoroazetidin-1-yl)-N-[4-(2-methyl-1,3-thiazol-4-yl)benzene-1-sulfonyl]-1-benzofuran-2-carboxamide]
12900 nM	1.73e-05 M	CCOc1ccccc1S(=O)(=O)NC(=O)c1cc2ccc(N3CC(C(F)(F)F)C3)cc2o1 [Example 117, N-(2-Ethoxybenzene-1-sulfonyl)-6-[3-(trifluoromethyl)azetidin-1-yl]-1-benzofuran-2-carboxamide]
13400 nM	> 2e-05 M	CCOc1ccccc1S(=O)(=O)NC(=O)c1cc2ccc(N3CC(OCC)C3)cc2o1 [Example 121, 6-(3-Ethoxyazetidin-1-yl)-N-(2-ethoxybenzene-1-sulfonyl)-1-benzofuran-2-carboxamide]
> 20000 nM	> 2e-05 M	CCOc1ccccc1S(=O)(=O)NC(=O)c1cc2ccc(N3CC4(CCC4)C3)cc2o1 [Example 123, 6-(2-Azaspiro[3.3]heptan-2-yl)-N-(2-ethoxybenzene-1-sulfonyl)-1-benzofuran-2-carboxamide]
